According to patent publication US9994536B2, “Compounds and methods of treating neurological disorders” (TORREY PINES INSTITUTE FOR MOLECULAR STUDIES, priority 2014, dated 2018):

Tests used:
[1] = system: sAPPα in supernatants of 7WD10 cells; test: Western blot sAPPα release assay, 7WD10 cells; format: cell-based; settings: 10 nM, 7WD10 supernatant
Description: (2). To ascertain that hits identified as a result of AlphaLISA assay are not due to artifacts of the detection system, the sAPPα levels were measured by Western blots as a secondary assay downstream of primary HTS to confirm hits or discard artifacts of the AlphaLISA assay. The assay was performed using a range of concentrations of hit compounds (10-5,000 nM). A hit compound named thiazole piperazine #244 (THPI-244) and THPI-326 induced dose-dependent increase of sAPPα in supernatants of 7WD10 cells (FIG. 1.3). […] Since compound THPI-244 increased sAPPα levels more than THPI-326, we focused on THPI-244 for further validation.
Western blot sAPPα release assay. 7WD10 cells were grown in 6-well plates and treated with test compounds and SAHA (vorinostat) at several concentrations in duplicate wells. After 24 h of drug exposure, the conditioned media (CM) was collected, centrifuged to remove cell debris and subjected to SDS-PAGE electrophoresis. sAPPα (6E10, mouse IgG from IBL America ltd) was detected using indicated antibody. […] Samples were subjected to SDS-PAGE, transferred and immunoblotted with indicated antibodies and detected by enhanced chemiluminescence method. Quantification of Western blot signals was done using ImageJ software.

TrkA = TrkA (Homo sapiens, UniProt P04629); test: TrkA protein level immunoblot, NT2 cells, with or without PKC inhibitor; format: cell-based; design: endogenous in cells; host or cells: NT2 cells (stably expressing APP751)
Chain of TrkA (P04629 33-796): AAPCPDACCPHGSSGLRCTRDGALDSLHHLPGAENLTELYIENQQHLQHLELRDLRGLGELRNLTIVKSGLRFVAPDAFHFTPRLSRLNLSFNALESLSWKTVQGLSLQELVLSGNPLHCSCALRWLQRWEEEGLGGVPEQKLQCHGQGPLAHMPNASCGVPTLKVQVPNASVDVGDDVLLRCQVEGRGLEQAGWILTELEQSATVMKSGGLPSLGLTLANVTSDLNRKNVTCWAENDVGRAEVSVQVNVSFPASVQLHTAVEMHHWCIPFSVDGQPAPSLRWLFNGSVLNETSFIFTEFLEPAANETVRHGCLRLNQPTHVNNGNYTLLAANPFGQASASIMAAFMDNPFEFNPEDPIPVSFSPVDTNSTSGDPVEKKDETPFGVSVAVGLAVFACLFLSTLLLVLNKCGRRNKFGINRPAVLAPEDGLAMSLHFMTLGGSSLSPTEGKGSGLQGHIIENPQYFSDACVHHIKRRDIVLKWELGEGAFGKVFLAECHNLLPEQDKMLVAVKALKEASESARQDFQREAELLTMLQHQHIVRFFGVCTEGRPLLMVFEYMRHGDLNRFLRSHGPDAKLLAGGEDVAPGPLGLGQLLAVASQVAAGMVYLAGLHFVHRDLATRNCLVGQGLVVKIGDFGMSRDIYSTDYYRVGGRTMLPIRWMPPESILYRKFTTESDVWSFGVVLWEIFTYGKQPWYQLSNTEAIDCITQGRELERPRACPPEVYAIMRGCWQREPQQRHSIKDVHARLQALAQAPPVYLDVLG
Description: (3). THPI-244 increases TrkA receptor levels independent of protein kinase C (PKC). Next to clarify whether increased sAPPα levels depends on increased TrkA activation, NT2 cells were treated with THPI-244 with or without TrkA inhibitor (cat #GW 441756, Tocris Bioscience) at 50 nM final concentration. After 24 h, sAPPα levels were quantified from the conditioned medium by immunoblots. […] We next wanted to address whether increased TrkA protein levels by THPI-244 depends on PKC since PKC activators are well-known to induce sAPPα secretion (Etcheberringaray, R., et al., 2004, PNAS, 101, 11141-11146). NT2 cells were similarly treated with THPI-244 at 100 nM with or without PKC inhibitor (GF 109203, cat #0741, Tocris Bioscience) at 1.0 nM and TrkA protein levels were quantified by immunoblots as shown in FIG. 1.10 (right). […] Thus increased sAPPα level by THPI-244 is through upregulation of TrkA receptor independent of PKC.

sAPPα = sAPPα ELISA, fibroblasts derived from AD patients; format: cell-based, human; settings: 24 h
Description: (1). […] Therefore, we first used fibroblasts derived from AD patients (AG06263C, Coriell Cell repository, supported by NINDS/NIH) and exposed to THPI-244 for 24 h and measured sAPPα release by ELISA as done above for NT2 cells. […] We also confirmed dose-dependent effect of THPI-244 on sAPPα levels in human primary neurons transiently transfected with APP751 with Swedish mutation which is trafficked differently from WT APP and releases more sAPPα. Human neurons were grown on specially coated glass coverslips (cat #GG-18-PDL, NeuVitro, Germany). We could reproducibly achieve nearly 30% transfection efficiency using a nanoparticle based transfection reagent called Neuromag (cat #NM150299, OZ Biosciences, France).

Structure (SMILES): O=C(Cc1ccccc1)N[C@H](CNc1nc(CN2CCN(C(=O)Cc3ccccc3)CC2)cs1)c1ccccc1 [THPI-244]
- increase of sAPPα over untreated control cells (Western blot) [1]: 2 fold
- TrkA protein level (TrkA; THPI-244 100 nM): 197%
- TrkA protein level (TrkA; THPI-244 100 nM plus PKC inhibitor GF 109203 1.0 nM): 192%
- lowest concentration with significant increase of sAPPα (sAPPα): 50 nM
